Laboratory results from PMC3435407, “αA-Crystallin–Derived Mini-Chaperone Modulates Stability and Function of Cataract Causing αAG98R-Crystallin” (PLoS ONE, 2012).
One block for each compound: values may come before it. Non-standard residues stand in square brackets, D forms with d. No end group written: not given here. *: point of attachment. Biotin = O=C1N[C@H]2[C@H](CS[C@H]2CCCCC(=O)*)N1; Bpa = N[C@@H](Cc1ccc(C(=O)c2ccccc2)cc1)C(=O)O

Assays:
[1] = tested on: ADH, citrate synthase, insulin and α-lactalbumin; parameters: method as in PMID 10660525, PMID 11350603, PMID 11563692; conditions: ref [26], [29], [30]; cited from earlier work
wild-type α-crystallin = conditions: modulator in 10- to 30-fold higher concentrations than α-crystallin; ref [39]–[42]; cited from earlier work
Text: In those studies the modulator was used in 10- to 30-fold higher concentrations than the α-crystallin [39]–[42] and the conformational changes in α-crystallin in the presence of the modulator was considered to be responsible for the activity enhancement.

αAG98R [2] = molecular target: T1, αAG98R (Homo sapiens, UniProt P02489, G98R); assay: Photo-crosslinking, SDS-PAGE and western blot; assay type: binding; conditions: for covalent association with αAG98R subunits: photolyzed, SDS-PAGE and western blot
T1 construct: the full-length human αA-crystallin cDNA cloned into pET-23d (+) vector; made in house; host or cells: E. coli BL21(DE3)pLysS
T1 sequence (P02489 whole entry G98R): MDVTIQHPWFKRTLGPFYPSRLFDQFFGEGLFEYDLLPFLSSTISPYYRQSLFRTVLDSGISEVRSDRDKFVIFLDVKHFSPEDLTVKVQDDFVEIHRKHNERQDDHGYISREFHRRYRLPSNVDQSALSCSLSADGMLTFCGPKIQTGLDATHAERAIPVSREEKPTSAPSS
Protocol: (§1) Biotinyl-αA-mini-chaperone-Bpa peptide (200 µg) was incubated with 200 µg of αAG98R crystallin in buffer, pH 7.2, at 37°C for 1 hr. Subsequently, the sample was filtered in a Microcon 10 kDa cut of filter (Millipore, Bedford, MA) to remove free peptides. The sample was photolyzed for 30 min, at 4°C, using a UV lamp (365 nm) held at a distance of 7 cm from the sample. The photolyzed sample was desalted using C18 zip tip spin columns (Thermo Fisher Scientific, Rockford, IL), as per the manufacturer's protocol, and the bound protein was eluted in 70% acetonitrile. […] The UV-photolyzed sample was subjected to SDS-PAGE and western blot analysis using antibody against biotin.
Figure 6 SDS-PAGE analysis of αAG98R cross-linked with biotinylated Bpa-mini-αA. Incubation, photolysis and SDS-PAGE (lanes 1–3), western blot (lanes 4 and 5) analysis were performed as described under methods. Lane 1, photolysed αAG98R; lane 2, αAG98R incubated with biotinyl-Bpa mini-αA and photolyzed; lane 3 mol wt markers. […] This band was absent in non-photolyzed samples (data not shown).Lanes 4 and 5 western blot of lanes 1 and 2 respectively. […] The figure is representative of 3 independent experiments.

[3] = tested on: alcohol dehydrogenase (ADH); assay: ADH aggregation assay, heat-denatured (chaperone-like activity); assay type: biochemical; conditions: peptide alone, 43°C
Protocol: (§2) Aggregation assay was performed in 1 ml 50 mM phosphate buffer containing 150 mM NaCl and 100 mM EDTA at 43°C. The chaperone activity of Biotin-[…](Bpa)[…] as well as a Pro-substituted mini-chaperone ([…]) was also measured by ADH aggregation assay. The extent of aggregation was estimated by monitoring the light scattering at 360 nm using a Shimadzu UV-VIS spectrophotometer equipped with a temperature-controlled multi-cell transporter.
Similar to our earlier observation, αAG98R suppressed ADH aggregation during the early part of the 2 hr assay but the assay mixture started to scatter light after 60 min (Figure 5A).
Figure 5 Effect of the addition of αA-crystallin–derived mini-chaperone on the chaperone-like activity of αAG98R against ADH aggregation. […] The figures represent the typical data obtained multiple times with WT-αA-crystallin and stabilized αAG98R.

αAG98R [4] = molecular target: T1, αAG98R; assay: Thermal aggregation monitored by light scattering at 360 nm; assay type: biochemical; conditions: 750 µg αAG98R, 1.7∶1 (mol/mol) ratio, 90 min, representative of 3 experiments
Protocol: Light scattering was monitored at 360 nm for 90 min using a spectrophotometer. […] Because αAG98R is a structurally perturbed protein [20], [21], we hypothesize that the mini-chaperone interacted with mutant αAG98R and prevented aggregation and light scattering. […] The aggregation and precipitation of αAG98R also occurred at 37°C but at a slower rate. […] Nearly 80% of αAG98R was recovered when the incubation was carried out with 1∶2 ratio (mol/mol) of αAG98R to mini-αA-.
The protein samples (750 µg) were incubated in 1 ml PO4 buffer, pH 7.2 at 43°C and light scattering was continually monitored at 360 nm for 90 min in a spectrophotometer. […] The figure is representative of 3 independent experiments.

αAG98R [5] = molecular target: T1, αAG98R; assay: Recovery of soluble αAG98R after incubation at 43°C (gel filtration, TSK G5000PWXL); assay type: biochemical; conditions: 75 µg αAG98R
Protocol: (§3) Samples were injected on to a TSK G5000PWXL (Tosoh Bioscience, Montgomeryville, PA) size-exclusion column equilibrated with 50 mM sodium phosphate buffer containing 150 mM NaCl (pH 7.2). The flow rate was set to 0.75 ml/min. The column was attached to a HPLC system connected with UV and refractive index detectors and coupled to a static multi-angle laser light scattering (DAWN-EOS) and dynamic quasi-elastic light scattering detectors (Wyatt Technology, Santa Barbara, CA). The molar mass (Mw), hydrodynamic radius (Rh) and polydispersity index (PDI) were determined using ASTRA (5.3.2) software developed by Wyatt Technology.
(§4) We know from previous studies thatαA-mini-chaperone suppresses the aggregation and precipitation of denaturing proteins, [29], [30]. […] The samples were centrifuged to remove any precipitate formed during incubation, and the supernatant was analyzed by TSKG5000 PWXL gel filtration column connected to a multi-angle laser light scattering (DAWN-EOS) and dynamic quasi-elastic light scattering detectors. […] The first peak corresponded to the oligomeric form of αAG98R, whereas the second peak represented dissociated subunits of the mutant protein. […] The hydrodynamic radius (Rh) of the stabilized αAG98R increased from 15.3 nm to 16.4 nm, consistent with increase in molar mass.

[6] = tested on: alcohol dehydrogenase (ADH); assay: EDTA-induced ADH aggregation assay at 37°C; assay type: biochemical; conditions: 250 µg ADH, 50 µg peptide, representative of two experiments
Protocol: as §2
The EDTA-induced aggregation of ADH assay was performed at 37°C as described under methods. In each experiment 250 µg of ADH was used. […] The figure is representative of two independent experiments. (TIF) Click here for additional data file.

[7] = tested on: αAG98R / wild-type αA-crystallin oligomer; assay: Multi-angle/quasi-elastic light scattering of αA-crystallin oligomers; assay type: physicochemical, human; conditions: 43°C, wild-type protein
Protocol: as §3, §4

[8] = tested on: αAG98R / wild-type αA-crystallin; assay: Far-UV CD thermal denaturation (218 nm); assay type: physicochemical, human; conditions: 100 µg/400 µl, 10 mM phosphate pH 7.2, listed as αA-crystallin mini-chaperone = αAG98R incubated with it
Protocol: Circular dichroism (CD) spectropolarimeter, J815 (Jasco, Easton, MD), equipped with a temperature control system, was employed to record CD spectra. Far-UV CD measurements were carried out over the wavelength range of 190 to 250 nm with bandwidth 0.5 nm, scan speed 10 nm/min using 0.1-cm path length cuvettes. Protein samples were prepared in 10 mM sodium phosphate buffer (pH 7.2). Spectra are the average of five scans. Buffer signal was subtracted prior to reporting the data. Thermal denaturation data were collected from 25°C to 45°C, with protein concentration of 100 µg/400 µl. Thermal denaturation experiments were performed with a heating rate of 1°C/min, and CD signals at 218 nm were used to determine transition midpoints. Near-UV CD spectra were recorded using a protein sample of 1.5 mg/ml in the buffer used for far-UV studies.
Proteins, 100 µg, were prepared in 400 µl of10 mM phosphate buffer, pH 7.2, and the sample temperatures were slowly raised from 25 to 48°C in 2°C steps, equilibrated for 5 min at each temperature prior to far-UV CD measurement. Molar ellipticity changes at 218 nm were plotted to determine relative stability of samples. […] The spectra were recorded using a protein sample of 1.5 mg/ml. The profile shown is the average of 5 scans.

αAG98R [9] = molecular target: T1, αAG98R; assay: αAG98R recovery with different amounts of mini-chaperone (43°C, 30 min); assay type: binding; conditions: 1∶2 ratio (mol/mol) of αAG98R to mini-αA, 10 µM αAG98R
α-crystallin = tested on: α-crystallin; parameters: method as in 2 sources, one per row (each row's own in cited_ref): ref [43] = [43]; PMID 8549682; doi:10.1016/s0014-4835(05)80136-8; 43 Sharma KK , Ortwerth BJ ( 1995 ) Effect of cross-linking on the chaperone-like function of alpha crystallin . Exp Eye Res 61 : 413 – 421 . 8549682 10.1016/s0014-4835(05)80136-8 ||| ref [44] = [44]; PMID 15199188; doi:10.1073/pnas.0403532101; 44 Kantorow M , Hawse JR , Cowell TL , Benhamed S , Pizarro GO , et al ( 2004 ) Methionine sulfoxide reductase A is important for lens cell viability and resistance to oxidative stress . Proc Natl Aca; conditions: α-crystallin in water-insoluble fraction of lens proteins; ref [43]; cited from earlier work
αAG98R [10] = molecular target: T1, αAG98R; assay: Photo-crosslinking, MALDI-TOF/TOF MS; assay type: binding; conditions: photolyzed; restated in the discussion
Protocol: as §1
Figure 7 MALDI-TOF MS spectrum of αAG98R photolyzed after incubation with or without biotinyl-Bpa-mini-αA-crystallin. A, αAG98R after photolysis; B, αAG98R photolyzed after incubation with biotinyl-Bpa mini-αA. The αAG98R-Bpa mini-αA complex with m/z 22592 is indicated by an arrow. Mass spectrometric analysis confirms the 1∶1 interaction of mini-chaperone with αAG98R monomer. The figure is representative of 3 independent experiments.

Compound: KFVIFLDVKHFSPEDLTVK [αA70-88, 19 amino acid peptide representing the chaperone site in αA-crystallin]
suppression of aggregation of denaturing ADH, citrate synthase, insulin and α-lactalbumin; chaperone-like function [1]: functions like a molecular chaperone

Compound: N=C(N)NN [aminoguanidine]
modulation of wild-type α-crystallin chaperone activity (wild-type α-crystallin): Modulation of wild-type α-crystallin chaperone activity

Compound: Biotin-DFVIFLDVKH[Bpa]SPEDLTVK [biotinyl-Bpa-mini-chaperone] [listing 1 of 2 here]
binding stoichiometry (SDS-PAGE/western blot) (αAG98R [2]; photolyzed mixture): one peptide was incorporated into one subunit of αAG98R
chaperone activity of Bpa peptide (heat-denatured ADH) [3]: retained chaperone activity
chaperone activity of Bpa peptide (heat-denatured ADH) ([3]; listed as biotin-DFVIFLDVKH(benzoylphenylalanine)SPEDLTVK): active in suppressing the aggregation of heat-denatured ADH

Compound: Nc1ncnc2c1ncn2[C@@H]1O[C@H](COP(=O)(O)OP(=O)(O)OP(=O)(O)O)[C@@H](O)[C@H]1O [ATP]
modulation of wild-type α-crystallin chaperone activity (wild-type α-crystallin): Modulation of wild-type α-crystallin chaperone activity

chaperone activity of Pro-substituted peptide (EDTA-induced ADH aggregation) [6]: no chaperone activity
Compound: DFVPFLDVKHFSPEDLTVK [Pro-substituted mini-chaperone]
suppression of αAG98R aggregation, 43°C (αAG98R [4]): failed to suppress precipitation of the mutant protein
effect on monomeric peak / dissociation / precipitation of αAG98R (αAG98R [5]; gel filtration TSK G5000PWXL): did not prevent the precipitation of αAG98R
chaperone activity of Pro-substituted peptide (EDTA-induced ADH aggregation) ([6]; listed as αA-mini-chaperone (pro)): Pro-substitution abolishes the chaperone activity of mini-chaperone

Compound: N[C@@H](CCC(=O)N[C@@H](CS)C(=O)NCC(=O)O)C(=O)O [glutathione]
modulation of wild-type α-crystallin chaperone activity (wild-type α-crystallin): Modulation of wild-type α-crystallin chaperone activity

Compound: wild-type αA-crystallin: recombinant wild-type human αA-crystallin expressed in E. coli
oligomeric size and molar mass change upon incubation [7]: oligomeric size and molar mass did not change
temperature up to which / above which 218 nm ellipticity is stable / changes [8]: 40 °C

mutant protein recovered in soluble form (percent) (αAG98R [5]; with or without 10 µg αA-mini-chaperone, 1 hr, listed as αAG98R = absence of mini-chaperone): 79%
recovery of αAG98R (αAG98R [9]): ~80%
Compound: DFVIFLDVKHFSPEDLTVK [αA-mini-chaperone]

Compound: N=C(N)NCCC[C@H](N)C(=O)O [arginine]
modulation of wild-type α-crystallin chaperone activity (wild-type α-crystallin): Modulation of wild-type α-crystallin chaperone activity

Compound: O[C@@H](CS)[C@@H](O)CS (racemic) [dithiothreitol (DTT), dithiothreitol]
restoration of chaperone activity by DTT (α-crystallin): restores some of the lost chaperone activity

Compound: Biotin-DFVIFLDVKH[Bpa]SPEDLTVK [biotinyl-Bpa-mini-chaperone] [listing 2 of 2 here]
Bpa-peptide incorporated into αAG98R subunit (αAG98R [10]): about 10%
αAG98R photo-crosslinked (image analysis of stained gel) (αAG98R [2]; 200 µg peptide + 200 µg αAG98R, pH 7.2, 37°C, 1 hr, photolysis 365 nm 30 min 4°C, representative of 3 experiments): about 10%
covalent association with αAG98R subunits (αAG98R [2]; representative of 3 experiments): covalent association of αA-mini-chaperone with αAG98R subunits was observed
covalent association with αAG98R subunits (αAG98R [2]; representative of 3 experiments, listed as biotinyl-Bpa mini-αA): confirms the binding of a mini-chaperone to a subunit of αAG98R
